Measured values: patent US10668048B2, “Compounds for inhibiting bacterial growth via phosphatidylglycerol binding” (Wichita State University, priority 2016, dated 2020)
≈ marks a conversion by molar mass, not a printed value.

How the values were obtained:
Escherichia coli [1] = test: Live-Dead stain (BacLight SYTO 9 / propidium iodide); type: cell-based; details: 10 μM, 90 minutes
Protocol: (§1) Molecular Probes BacLight© kits containing the SYTO 9 green-fluorescent dye and propidium iodide red-fluorescent dye were used to detect live or dead bacteria after ninety minute exposure of bacteria to liptins 1h or 1k. Bacteria in Muller Hinton culture were grown to an OD=0.3, were inoculated with liptins 1h and 1k and after ninety minutes stained with a mixture of the above dyes and affixed to a slide to be examined under a light microscope (40×) to determine the number of live and dead cells (green colored cells considered alive and red-colored cells considered dead). Data was calculated based upon an average of 5 different plate counts from each slide, and is based on a percent of total bacteria counted (live and dead). Control sample contains no liptin.

Staphylococcus aureus [2] = test: as above; type: cell-based; details: 5 μM, 90 minutes
Protocol: as §1

Mycobacterium smegmatis [3] = test: as above; type: cell-based; details: 5 μM, 90 minutes
Protocol: as §1

Klebsiella pneumoniae [4] = test: as above; type: cell-based; details: 90 minutes
Protocol: as §1

Acinetobacter baumannii [5] = test: as above; type: cell-based; details: 5 μM, 90 minutes
Protocol: as §1

MRSA [6] = test: MBC in cation-adjusted Muller Hinton culture; type: cell-based, Methicillin-resistant S. aureus
Protocol: (§2) Minimum bactericidal concentration (MBC) were determined in cation-adjusted Muller Hinton culture. Standard CLSI protocol for serial dilutions of liptin concentrations were used to determine the MBC, starting at 0.01 OD. Two different experimental cultures were used and each data point measured in triplicate.

[7] = Liptin-PG binding in solution (ITC and/or 1H NMR titration)
Protocol: The lipid binding ability of liptins 1-3 (FIG. 2A) have been investigated in solution using isothermal titration calorimetry (ITC) and/or ^1H NMR. Stoichiometry of binding was accomplished with Job plots using ^1H NMR. […] The use of organic solvents allowed the determination of binding motif using ^1H NMR.
Liptins 1b, 1e, 2c, 2d, 3a, 3c in DMF/5% CHCl3; 3e in 50% DMSO, 45% CHCl3, 5% CH3OH.
Liptins 1h and 1i 40% DMSO, 60% CHCl3, 3f in 20% DMSO, 80% CHCl3.

Pseudomonas aeruginosa = test: MIC in cation-adjusted Muller Hinton culture; type: cell-based; details: no growth after 24 hours
Protocol: (§3) MICs were determined in cation-adjusted Muller Hinton culture. Standard CLSI protocol for serial dilutions of liptin concentrations were used to determine the MIC, starting at 0.01 OD. Two different experimental cultures were used and each data point measured in triplicate.

Escherichia coli [8] = test: MIC in cation-adjusted Muller Hinton culture; type: cell-based; details: no growth after 24 hours
Protocol: as §3

Staphylococcus aureus [9] = test: MIC in cation-adjusted Muller Hinton culture; type: cell-based; details: no growth after 24 hours
Protocol: as §3

Mycobacterium smegmatis [10] = test: MIC in cation-adjusted Muller Hinton culture; type: cell-based; details: no growth after 24 hours
Protocol: as §3

Klebsiella pneumoniae [11] = test: MIC in cation-adjusted Muller Hinton culture; type: cell-based; details: no growth after 24 hours
Protocol: as §3

Acinetobacter baumannii [12] = test: MIC in cation-adjusted Muller Hinton culture; type: cell-based; details: no growth after 24 hours
Protocol: as §3

MRSA [13] = test: MIC in cation-adjusted Muller Hinton culture; type: cell-based, Methicillin-resistant S. aureus; details: no growth after 24 hours
Protocol: as §3

[14] = system: Gram-positive and Gram-negative bacteria; test: Growth curves in BHI culture with liptins 1h-k; type: cell-based; details: one inoculation
Protocol: Growth curves in BHI culture were generated (not shown) from liquid shake-flask cultures using absorbance measurements at 600 nm at different concentrations of liptins 1h-k. Uninoculated control flasks were used as blanks. Absorbance values of 0.1 OD unit was considered reasonable threshold for positive growth. The use of the nutrient-rich BHI culture allowed us to measure the effects of the small structural differences in liptins 1h-k on bacterial growth rates over long periods of time. […] Liptin exposure appears to stop bacterial growth, as evidenced by long lag phases, which increase with liptin concentration, and growth rates and maximum cell densities are decreased with liptin treatment.

Escherichia coli [15] = test: MBC in cation-adjusted Muller Hinton culture; type: cell-based
Protocol: as §2

Staphylococcus aureus [16] = test: MBC in cation-adjusted Muller Hinton culture; type: cell-based
Protocol: as §2

Mycobacterium smegmatis [17] = test: MBC in cation-adjusted Muller Hinton culture; type: cell-based
Protocol: as §2

Klebsiella pneumoniae [18] = test: MBC in cation-adjusted Muller Hinton culture; type: cell-based
Protocol: as §2

Acinetobacter baumannii [19] = test: MBC in cation-adjusted Muller Hinton culture; type: cell-based
Protocol: as §2

MRSA [20] = test: Live-Dead stain (BacLight SYTO 9 / propidium iodide); type: cell-based, Methicillin-resistant S. aureus; details: 90 minutes
Protocol: as §1

[21] = system: A549 (lung carcinoma epithelial) cells; test: LDH release cytotoxicity assay; type: cell-based; details: near 15 μM
Protocol: (§4) Toxicity Studies of human HeLa (vaginal carcinoma) and A549 (lung carcinoma epithelial) cells with Liptins 1h and 1k.
(§5) Eukaryote cell toxicity was determined using a Pierce LDH assay kit including the Chemical Compound-Mediated Cytotoxicity assay. This kit measures cell death by measuring the amount of lactate dehydrogenase released from cells. Lactate dehydrogenase (LDH) is a cytosolic enzyme present in many different types of cells. When the plasma membrane is damaged, LDH is released into cell culture media. The released LDH can be quantified by a coupled enzymatic reaction. First, LDH catalyzes the conversion of lactate to pyruvate via reduction of NAD+ to NADH. Second, diaphorase uses NADH to reduce a tetrazolium salt (INT) to a red formazan product. Therefore, the level of formazan formation is directly proportional to the amount of released LDH in the medium.

[22] = system: human HeLa (vaginal carcinoma) cells; test: LDH release cytotoxicity assay; type: cell-based; details: up to about 15 μM
Protocol: as §4, §5

S. aureus = test: BacLight Bacterial Membrane Potential kit, plasma membrane depolarization; type: cell-based; details: one half the liptins' MICs; concentration dependent
Protocol: (§6) The Molecular Probes BacLight® Bacterial Membrane Potential kit was used to detect changes in the polarization of the bacterial plasma membrane upon inoculation of bacteria with varying concentrations of liptins 1h or 1k. […] CCCP (carbonyl cyanide 3-chlorophenylhydrazone) is a proton ionophore that destroys plasma membrane potential and as such is a positive control. […] With plasma membrane depolarization the bacterial cell loses its ability to synthesize ATP and proteins. Additionally loss of membrane potential stops the ability for cell replication due to an inability for proper placement of divisome proteins in the plasma membrane. […] Thus, it is possible that the liptin's mechanism of action is a result of their deleterious effect on the functioning of electron transport proteins found in the plasma membrane.

E. coli = test: as above; type: cell-based; details: one half the liptins' MICs; concentration dependent
Protocol: as §6

[23] = system: Gram-negative and Gram-positive bacteria; test: MIC/MBC in Muller Hinton culture, summary over the bacteria tested; type: cell-based
Protocol: as §3, §2

[24] = Inorganic phosphate anion binding in DMF solution
Description: Liptins 2a-2d (FIG. 2A) have been prepared and characterized, but not published. However, example syntheses of several precursors required for the preparation of liptins 2a-2d, via precursors 7-8, utilizing soluble copper catalyst developed in our laboratory to couple the two aromatic rings and to elaborate the ring structure is based upon our previous experience, as is our methodology to efficiently ureidoalkylate the bis-phenol intermediates (FIG. 5). […] In contrast, inorganic phosphate anion bound more tightly to 2c (Ka=10^3 M^−1), indicating the anion binding unit with […] linking the two phenolic oxygens was a complementary fit for phosphate anion. By adding two additional methylene groups to the bridge linking the two rings [i.e., now (CH2)5, 2d], the size of the pocket better accommodates the PG head group, leading to increased […] with a Ka≈500 M^−1 in DMF. To further increase binding affinity, we changed the 3-hydroxypropane para-substituent into a 2,3-propane diol para-substituent (seen in 8 prepared from 7, FIG. 5). This increased the number of possible interactions between the liptin and the PG glycerol hydroxyls and reduced possible conformational constraints in the binding pocket when only two hydroxyl groups are present. […]

`CCCCCCNC(=O)CCc1ccc2c(c1)CNCCCNCc1cc(CCC(=O)NCCCCCC)ccc1OCCCCCO2` [Liptin 1h] showed a Dead (Escherichia coli [1]) of 75%, a Live (Escherichia coli [1]) of 35% and a Dead (Staphylococcus aureus [2]) of 39%. The Live (Staphylococcus aureus [2]) was 61%, the Dead (Mycobacterium smegmatis [3]) was 93% and the Live (Mycobacterium smegmatis [3]) was 7%. The Dead (Klebsiella pneumoniae [4]; 5 μM) was 67%, the Live (Klebsiella pneumoniae [4]; 5 μM) was 33% and the Dead (Klebsiella pneumoniae [4]; 10 μM) was 100%. It also gave a Live (Klebsiella pneumoniae [4]; 10 μM) of 0%, a Dead (Acinetobacter baumannii [5]) of 88% and a Live (Acinetobacter baumannii [5]) of 12%. The MBC (MRSA [6]) was 10 µM (≈ 6.65 µg/mL), the Ka ([7]; ITC or NMR titrations, 40% DMSO, 60% CHCl3) was 4600 M⁻¹ and the MIC (Pseudomonas aeruginosa) was 9 µM (≈ 5.98 µg/mL). It also gave an MIC (Escherichia coli [8]) of 2 µM (≈ 1.33 µg/mL), an MIC (Staphylococcus aureus [9]) of 2.5 µM (≈ 1.66 µg/mL) and an MIC (Mycobacterium smegmatis [10]) of 2.5 µM (≈ 1.66 µg/mL). It also gave an MIC (Klebsiella pneumoniae [11]) of 3 µM (≈ 1.99 µg/mL), an MIC (Acinetobacter baumannii [12]) of 2.5 µM (≈ 1.66 µg/mL) and an MIC (MRSA [13]) of 3 µM (≈ 1.99 µg/mL). For the same molecule, the “antibacterial activity from growth curves” value [14] was “most potent”, the MBC (Escherichia coli [15]) was 9 µM (≈ 5.98 µg/mL) and the MBC (Staphylococcus aureus [16]) was 11 µM (≈ 7.31 µg/mL). The MBC (Mycobacterium smegmatis [17]) was 11.5 µM (≈ 7.65 µg/mL), the MBC (Klebsiella pneumoniae [18]) was 8.5 µM (≈ 5.65 µg/mL) and the MBC (Acinetobacter baumannii [19]) was 8.5 µM (≈ 5.65 µg/mL). It also gave a Dead (MRSA [20]; 5 μM) of 72%, a Live (MRSA [20]; 5 μM) of 28% and a Dead (MRSA [20]; 10 μM) of 84%. The Live (MRSA [20]; 10 μM) was 15%, the “cytotoxicity (LDH release)” value [21] was “over 25%” and the “cell toxicity (LDH release)” value [22] was “large toxicity”. The “plasma membrane depolarization (red/green fluorescence ratio)” value (S. aureus) was “large membrane depolarization” and the “plasma membrane depolarization (red/green fluorescence ratio)” value (E. coli) was “large membrane depolarization”.
Molecule `CCCCCCNC(=O)Cc1ccc2c(c1)CNCCCCNCc1cc(CC(=O)NCCCCCC)ccc1OCCCCO2` [Liptin 1k] has a Dead (Escherichia coli [1]) of 65%, a Live (Escherichia coli [1]) of 35% and a Dead (Staphylococcus aureus [2]) of 42%. It also gave a Live (Staphylococcus aureus [2]) of 58%, a Dead (Mycobacterium smegmatis [3]) of 100% and a Live (Mycobacterium smegmatis [3]) of 0%. It also gave a Dead (Klebsiella pneumoniae [4]; 5 μM) of 100%, a Live (Klebsiella pneumoniae [4]; 5 μM) of 0% and a Dead (Acinetobacter baumannii [5]) of 97%. It also gave a Live (Acinetobacter baumannii [5]) of 3%, an MBC (MRSA [6]) of 11.5 µM (≈ 7.32 µg/mL) and an MIC (Pseudomonas aeruginosa) of 8 µM (≈ 5.1 µg/mL). For the same molecule, the MIC (Escherichia coli [8]) was 1.5 µM (≈ 0.955 µg/mL), the MIC (Staphylococcus aureus [9]) was 2 µM (≈ 1.27 µg/mL) and the MIC (Mycobacterium smegmatis [10]) was 2 µM (≈ 1.27 µg/mL). The MIC (Klebsiella pneumoniae [11]) was 2.5 µM (≈ 1.59 µg/mL), the MIC (Acinetobacter baumannii [12]) was 2 µM (≈ 1.27 µg/mL) and the “MICs determined for the 6 bacteria” value [23] was 1.5 to 2.5 µM. The MIC (MRSA [13]) was 2.5 µM (≈ 1.59 µg/mL), the “antibacterial activity from growth curves” value [14] was “most potent” and the MBC (Escherichia coli [15]) was 7.5 µM (≈ 4.78 µg/mL). For the same molecule, the MBC (Staphylococcus aureus [16]) was 9.5 µM (≈ 6.05 µg/mL), the MBC (Mycobacterium smegmatis [17]) was 9.5 µM (≈ 6.05 µg/mL) and the MBC (Klebsiella pneumoniae [18]) was 9.5 µM (≈ 6.05 µg/mL). The MBC (Acinetobacter baumannii [19]) was 7.5 µM (≈ 4.78 µg/mL), the Dead (MRSA [20]; 5 μM) was 70% and the Live (MRSA [20]; 5 μM) was 30%. For the same molecule, the Dead (MRSA [20]; 10 μM) was 100%, the Live (MRSA [20]; 10 μM) was 0% and the “cytotoxicity (LDH release)” value [21] was “around 8%”. For the same molecule, the “cell toxicity (LDH release)” value [22] was “no cell toxicity”, the “plasma membrane depolarization (red/green fluorescence ratio)” value (S. aureus) was “large membrane depolarization” and the “plasma membrane depolarization (red/green fluorescence ratio)” value (E. coli) was “large membrane depolarization”.
In the case of `O=C(NCc1cc(CCCO)cc2c1OCOc1c(cc(CCCO)cc1CNC(=O)Nc1ccccc1)CCC2)Nc1ccccc1` [Liptin 2c], the “Ka for inorganic phosphate anion” value [24] is reported as 10^3 M^−1 and the Ka ([7]; ITC, DMF/5% CHCl3, 1:1 binding stoichiometry) is reported as 420 M⁻¹.
